Measured values as given in patent US20260070887A1 (Shenzhen Zhongge Biological Technology Co., Ltd., priority 2022, published 2026).
Where two headings read alike, the source gives them in different places.

Columns and labels:
HCC1954 cells = assay: HCC1954 cell proliferation (Cell Titer-Glo, 6 days); format: cell-based; settings: KIF18A-sensitive tumor cells
Experimental: The inhibitory effect on the KIF18A target by the compounds of the present disclosure was evaluated by testing the inhibitory effect on proliferation of HCC1954 and HCC1395 cells by the compounds of the present disclosure.
HCC1954 (ATCC, CRL-2388) and HCC1395 (ATCC, CRL-2324) cells were cultured separately in RPMI-1640 complete medium (Gibco, A1049101) containing 20% fetal bovine serum (Gibco, 10099141C), 100 U penicillin, and 100 μg/mL streptomycin (Gibco, 15140-122). The Promega kit Cell Titer-Glo (Promega: G7572) was used in this method for test. • 1. HCC1954 (KIF18A-sensitive tumor cells) and HCC1395 (KIF18A-insensitive tumor cells) were cultured separately in T75 cell culture flasks (Corning, 430641), and the medium was placed in a 37° C., 5% CO2 incubator. • 2. When the cell density reached 70% to 80% (about 2 to 3 times per week), cells are passaged with trypsin (0.25% EDTA). • 3. The cell culture flask was taken out and the cells were separated by adding 2 mL of trypsin (0.25% EDTA source) for 5 minutes. • 4. Digestion was stopped by adding 8 mL of RPM1-1640 medium and the cell suspension was transferred to a centrifuge tube and centrifuged at 1000 rpm for 5 minutes. • 5. The cells were resuspended with 5 mL of RPMI-1640 medium. Cell density was adjusted to 5×10^3/mL (HCC1954), and 2.5×10^4/mL (HCC1395), respectively. • 6. 40 μL of cell solution was added to the 384-well plate (Corning, 3765). • 7. The 384-well plate was centrifuged at 1000 rpm for 1 minute. • 8. The cells were cultured overnight in a 37° C., 5% CO2 incubator. • 9. The next day, 40 nL of compound solution was added to the 384-well plate using Echo650. The plate was then placed in a 37° C., 5% CO2 incubator for 6 days. • 10. After 6 days, 20 μL of Cell-Titer-Glo (Promega, G7572) reagent was added per well. • 11. Luminescence values were measured using the EnVision Xcite Multilabel Reader (PerkinElmer, 2105-0020).
The percentage of inhibition of cell proliferation by the test compound at each concentration was calculated by comparing with the values of the control group (0.1% DMSO). The IC50 values of the compounds were obtained by concentration-inhibition rate nonlinear regression analysis of the test compounds using GraphPad Prism 9.

hERG channel = hERG channel (Homo sapiens (Human), UniProt Q12809); assay: hERG manual patch clamp test; format: cell-based
Experimental: The cells used in this test were the HEK293 cell line transfected with hERG cDNA and stably expressing the hERG channel (#60187, supplied by BPS, passages P3-P23 for experimental studies). The cells were cultured in a medium containing the following components: MEM medium containing 10% (v/v) inactivated fetal calf serum, 1 mM sodium pyruvate, 500 μg/ml geneticin, 0.1 mM non-essential amino acids, and 100 U/m1 penicillin/streptomycin. HEK293 hERG cells were grown in a culture dish containing the above-mentioned medium, cultured in a 37° C., 5% CO2 incubator, and passaged approximately three times per week, with the cell fusion rate between 40% and 80%. 24 to 48 hours prior to electrophysiological experiments, HEK293 hERG cells were transferred to 0.05 mg/ml PDL-pretreated slides, seeded at a density of 1×10^4 cells per well in a 48-well plate, and grown in the same medium and under the same culture conditions. The density of HEK293 hERG cells on each circular slide needs to reach the requirement that most cells are independent and individual. The extracellular fluid components used in the hERG assay were as follows (mM): 145 NaCl, 4 KCl, 2 CaCl2, 1 MgCl2, 10 glucose, and 10 HEPES (pH adjusted to 7.40 with NaOH). The intracellular fluid components were as follows (mM): 130 KCl, 2 MgCl2, 5 EGTA, 10 HEPES and 5 Na2ATP (pH adjusted to 7.25 with KOH). […] Prior to the experiment, the compound was first serially diluted with DMSO to prepare stock solutions at 10, 3, 1, 0.3, and 0.1 mM, which were then further diluted with extracellular fluid to achieve the final test concentrations (in μM). The final concentration of DMSO in compound solutions at various concentrations was between 0.1% and 0.3%. All compound solutions are routinely sonicated for 5 to 10 min and shaken sufficiently to ensure complete dissolution of the compound, and all test solutions are mixed well by rotation for at least 10 min.
Electrophysiological tests were performed using a manual patch clamp system (HEKA EPC-10 signal amplifier and digital conversion system, HEKA Electronics, Germany) for the recording of whole cell currents. The specific test method was described as follows: Circular slides with […] hERG cells growing on the surface were placed in an electrophysiological recording chamber under an inverted microscope. The recording chamber was continuously perfused with extracellular fluid (at approximately 1 mL/min). The conventional whole-cell patch-clamp technique was employed for current recordings throughout the experiment. If not specified, the experiments were carried out at normal room temperature (about 25° C.). The cells were clamped at −80 mV. The cell clamp voltage was depolarized to +30 mV to activate the hERG potassium channel, and then clamped to −50 mV after 5 seconds to eliminate inactivation and produce a tail current. The peak tail current value was used as a value for the magnitude of the hERG current. The potassium current of hERG recorded in the above steps was stabilized by continuous extracellular fluid perfusion in the recording chamber, and the drug to be tested was continuously perfused until the inhibitory effect of the drug on hERG currents had stabilized. The coincidence of the most recent three consecutive current recording traces was typically taken as the criteria for determining whether steady-state conditions were achieved.
Dose-response curves of the test compounds were plotted with % hERG inhibition rate as the y-axis and test compound concentration as the x-axis, to calculate the IC50 values.

[1] = HEK293 cells stably expressing hERG, whole-cell patch clamp, read-out: hERG IC50

Sequence of hERG channel (Q12809 whole entry, the tested form may be a part): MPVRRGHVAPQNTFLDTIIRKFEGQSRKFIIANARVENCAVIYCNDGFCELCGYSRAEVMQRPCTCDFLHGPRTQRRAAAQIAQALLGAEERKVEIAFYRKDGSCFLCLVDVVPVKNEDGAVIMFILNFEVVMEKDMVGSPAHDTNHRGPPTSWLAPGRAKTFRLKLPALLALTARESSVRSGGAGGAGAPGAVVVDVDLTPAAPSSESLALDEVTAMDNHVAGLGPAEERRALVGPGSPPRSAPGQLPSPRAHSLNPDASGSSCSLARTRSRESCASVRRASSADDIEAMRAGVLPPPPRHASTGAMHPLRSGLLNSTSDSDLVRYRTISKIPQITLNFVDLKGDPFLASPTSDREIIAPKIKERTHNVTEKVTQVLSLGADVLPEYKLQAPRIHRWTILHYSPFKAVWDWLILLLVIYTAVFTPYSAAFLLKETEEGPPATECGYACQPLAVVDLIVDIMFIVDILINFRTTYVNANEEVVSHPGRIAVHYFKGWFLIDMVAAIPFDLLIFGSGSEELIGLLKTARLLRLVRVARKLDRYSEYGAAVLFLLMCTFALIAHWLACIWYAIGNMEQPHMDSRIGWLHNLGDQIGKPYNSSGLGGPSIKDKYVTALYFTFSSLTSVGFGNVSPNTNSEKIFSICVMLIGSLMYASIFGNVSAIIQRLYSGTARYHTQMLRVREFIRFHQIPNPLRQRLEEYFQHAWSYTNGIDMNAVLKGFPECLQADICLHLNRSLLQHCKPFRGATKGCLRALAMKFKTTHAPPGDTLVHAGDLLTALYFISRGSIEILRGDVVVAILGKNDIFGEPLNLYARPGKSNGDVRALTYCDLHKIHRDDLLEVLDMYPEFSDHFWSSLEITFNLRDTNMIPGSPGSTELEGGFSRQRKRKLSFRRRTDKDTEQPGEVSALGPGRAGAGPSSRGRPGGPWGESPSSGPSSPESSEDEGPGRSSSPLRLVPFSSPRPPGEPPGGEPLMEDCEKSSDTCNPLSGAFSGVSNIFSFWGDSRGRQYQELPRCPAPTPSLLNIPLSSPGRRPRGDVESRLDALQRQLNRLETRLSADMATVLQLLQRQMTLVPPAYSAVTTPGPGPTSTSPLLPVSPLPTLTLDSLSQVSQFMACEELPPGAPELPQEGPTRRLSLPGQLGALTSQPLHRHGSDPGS

| Compound | IC50 (HCC1954 cells) | IC50 (hERG channel; [1]) | also measured |
| --- | --- | --- | --- |
| Nc1cc(NS(=O)(=O)CCO)cc(N2CCC3(CC2)CC3)c1C(=O)Nc1cccc(N2CCC(F)(F)CC2)c1 [Example 1, 2-amino-N-(3-(4,4-difluoropiperidin-1-yl)phenyl)-4-((2-hydroxyethyl)sulfonamide)-6-(6-azaspiro[2.5]octan-6-yl)benzamide] | ≤ 0.01 µM | – | – |
| CNc1cc(NS(=O)(=O)CCO)cc(N2CCC3(CC2)CC3)c1C(=O)Nc1cc(C)nc(N2CCC(F)(F)CC2)n1 [Example 4, N-(2-(4,4-difluoropiperidin-1-yl)-6-methylpyrimidin-4-yl)-4-(2-hydroxyethylsulfonamide)-2-methylamino-6-(6-azaspiro[2.5]octan-6-yl)benzamide] | ≤ 0.01 µM | – | – |
| O=C(Nc1cccc2c1cc1n2CCOC1)c1ccc(NS(=O)(=O)CCO)cc1N1CCC2(CC1)CC2 [Example 235, N-(3,4-dihydro-1H-[1, 4]oxazino[4,3-a]indol-9-yl)-4-(2-hydroxyethylsulfonamido)-2-(6-azaspiro[2.5]octan-6-yl)benzamide] | – | 9.84 µM | IC50 (HCC1954 cells; Homo sapiens, HCC1954, 144 h): ≤ 0.01 µM |
| O=C(Nc1cccc2c1cc1n2CCOC1)c1ccc(NS(=O)(=O)CCO)cc1N1CCC(=C(F)F)CC1 [Example 319, 2-(4-difluoromethylene)piperidin-1-yl-N-(3,4-dihydro-1H-[1,4]oxazino[4,3-a]indol-9-yl)-4-((2-hydroxyethyl)sulfonamide) benzamide] | 0.01 to 0.5 µM | > 10 µM | – |
| CC1(C)Cn2c(cc3c(NC(=O)c4ccc(NS(=O)(=O)CCO)cc4N4CCC(=C(F)F)CC4)cccc32)CO1 [Example 370, 2-(4-(difluoromethylene)piperidin-1-yl)-N-(3,3-dimethyl-3,4-dihydro-1H-[1,4]oxazino[4,3-a]indol-9-yl)-4-((2-hydroxyethyl)sulfonamido)benzamide] | – | > 10 µM | – |
| CC1(C)Cn2c(cc3c(NC(=O)c4ccc(NS(=O)(=O)CCO)cc4N4CCC5(CC4)CC5)cccc32)CO1 [Example 371, N-(3,3-dimethyl-3,4-dihydro-1H-[1,4]oxazino[4,3-a]indol-9-yl)-4-(2-hydroxyethylsulfonamido)-2-(6-azaspiro[2.5]octan-6-yl)benzamide] | – | > 10 µM | – |
| COc1ccc(NC(=O)c2ccc(NS(=O)(=O)CCO)cc2N2CCC3(CC2)CC3)c2cc3n(c12)CC(C)(C)OC3 [Example 455, 4-((2-hydroxyethyl)sulfonamido)-N-(6-methoxy-3,3-dimethyl-3,4-dihydro-1H-[1,4]oxazinyl[4,3-a]indol-9-yl)-2-(6-azaspiro[2.5]oct-6-yl)benzamide] | – | – | IC50 (hERG channel): > 10 µM |
| COc1ccc(NC(=O)c2ccc(NS(=O)(=O)CCO)cc2N2CCC(=C(F)F)CC2)c2cc3n(c12)CC(C)(C)OC3 [Example 465, 2-(4-(difluoromethylene)piperidin-1-yl)-4-((2-hydroxyethyl)sulfonamido)-N-(6-methoxy-3,3-dimethyl-3,4-dihydro-1H-[1,4]oxazinyl[4,3-a]indol-9-yl)benzamide] | – | > 10 µM | – |
| CC1(C)Cn2c(cc3c(NC(=O)c4ccc(NS(=O)(=O)CCO)cc4N4CCC5(CC4)CC5)ccc(OC(F)F)c32)CO1 [Example 523] | – | > 10 µM | – |
